Measurements: article PMC4546427, “Stereoselective Regulation of P-gp Activity by Clausenamide Enantiomers in Caco-2, KB/KBv and Brain Microvessel Endothelial Cells” (PLoS ONE, 2015)

System: P-gp
Assay: Rh123 accumulation summarized over Caco-2, KBv and RBMECs
Format: cell-based
Conditions: mean of Caco-2, RBMEC, KBv
Procedure: Caco-2 cells were seeded onto 6-well plates at a density of 5 × 10^5 cells/well and maintained in MEM supplemented with 10% (v/v) FBS, 1% (v/v) NEAA, 100 units/mL penicillin and 100 μg/mL streptomycin sulphate in a humidified 37°C incubator with 5% CO2. Upon 80%–90% confluence, the cells were provided new complete medium (2 mL/well) and exposed, to vehicle, (−)CLA (1 or 5 μmol/L), (+)CLA (1 or 5 μmol/L), verapamil (200 μmol/L) or individual enantiomer (1 or 5 μmol/L) plus verapamil (200 μmol/L). Then, Rh123 (5 μmol/L) was added to all the wells. After incubation at 37°C and 5% CO2 for 2 h which was designed by the pharmacokinetic parameters of CLA enantiomers, the cells were washed 3 times with 2 mL of ice-cold PBS (pH 7.4), lysed in 400 μL of lysis buffer [50 mmol/L Tris-HCl (pH 8.0), 150 mmol/L NaCl, 0.1% SDS, 100 μg/mL PMSF, 1 μg/mL aprotinin and 1% Nonidet P-40], and then were placed on ice for 40 min. The plates were wrapped in tinfoil. The fluorescence of Rh123 in each well was detected by Spectra Max Gemini XS plate reader (Molecular Devices Corp., Sunnyvale, CA, USA) with excitation and emission wavelengths of 488 nm and 530 nm, respectively. Meanwhile, 10 μL of cell lysates were collected from each well to measure protein concentration using Lowry’s method. Intracellular Rh123 accumulation was normalized by protein concentration (mg/mL) and then was calculated by a standard curve of Rh123 at three concentrations (2.5–10 μmol/L), in parallel with the lysis experiment.
The experimental programs in this part were approved by the Animal Care and Welfare Committee in our institute. Animals were treated in accordance with national/international guidelines. Primary cultures of brain microvessel endothelial cells were prepared from Sprague—Dawley rats (10–12 days old; Beijing Vital River Company, Beijing, China), as previously described by Qian et al.[21]. The gray matter of animals was taken out and minced into small pieces of approximately 1 mm^3 in ice-cold MEM medium, then dissociated by using 2 mg/mL collagenase containing DNase at a final concentration of 10.5 μg/ml on a shaker for 20 min at 37°C. The cells were pelleted by centrifugation(1000 rpm, 10 min, 4°C) and digested once again according to the above protocol. Then 20% dextran(Mr 40,000) was added to the cells for differential centrifugation at 2000 rpm for 10 min. The cells were re-suspended in complete MEM medium and passed through 74-μm stainless steel mesh. […] The P-gp expression in cultured cells was determined by Western blot analyses using a mouse monoclonal antibody raised against amino acids 1040–1280 of P-gp. […]

Row | SMILES | Percentage of rhodamine 123 accumulation relative to vehicle treatment, Mean±SD, n = 3 (high dose) | Percentage of rhodamine 123 accumulation relative to vehicle treatment, Mean±SD, n = 3 (low dose)
1 | CN1C(=O)[C@@H](O)[C@H](c2ccccc2)[C@@H]1[C@@H](O)c1ccccc1 [(−)CLA, 3S, 4R, 5R, 6S-clausenamide] | 50.48±17.88% | 18.90±10.22%
2 | CN1C(=O)[C@H](O)[C@@H](c2ccccc2)[C@H]1[C@H](O)c1ccccc1 [(+)CLA, 3R,4S,5S,6R-CLA] | 41.28±16.86% | -19.21±7.16%
